From ChEMBL document CHEMBL1201862, “PubChem BioAssay data set” (2004)
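The compound was tested at five concentrations on cells cultured in 96-well plates, with a 48-hour exposure period. GI50 is the concentration that inhibits growth by half.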 Active and inactive are the calls of the source. Rule as the data show it: active = GI50 up to about 1.1 µM and inactive = higher.

Assays:
Assay in all cases: inhibition of tumour cell growth, NCI panel, 48 h
MOLT-4 = system: MOLT-4
OVCAR-3 = system: OVCAR-3
HL-60 = system: HL-60
SNB-19 = system: SNB-19
SR = system: SR
OVCAR-8 = system: OVCAR-8
K562 = system: K562
NCI-H460 = system: NCI-H460
SF-268 = system: SF-268
MDA-MB-231 = system: MDA-MB-231
DU-145 = system: DU-145
SN12C = system: SN12C
KM12 = system: KM12
HOP-92 = system: HOP-92
OVCAR-5 = system: OVCAR-5
A498 = system: A498
SK-MEL-2 = system: SK-MEL-2
SK-OV-3 = system: SK-OV-3

Measured: GI50

CC(C)(C)OC(=O)NCCc1ccc(N)cc1
inactive: MOLT-4 37.2 µM | OVCAR-3 19.9 µM | HL-60 17.5 µM | SNB-19 > 100 µM | SR 55.6 µM | OVCAR-8 > 100 µM | K562 66.5 µM | NCI-H460 > 100 µM | SF-268 > 100 µM | MDA-MB-231 > 100 µM | DU-145 > 100 µM

COc1ccc(/C=C2/SC(c3ccc(Cl)cc3)N(NC(=O)CCCCCCCCC(=O)NN3C(=O)/C(=C\c4ccc(OC)c(OC)c4)SC3c3ccc(Cl)cc3)C2=O)cc1OC (centres undefined)
inactive: SN12C > 100 µM | MOLT-4 47.5 µM | KM12 55.3 µM | OVCAR-3 60 µM | HOP-92 18.8 µM | OVCAR-5 87.1 µM | A498 24.4 µM | SNB-19 50.2 µM | SR > 100 µM | OVCAR-8 52.8 µM | K562 78.3 µM | SK-MEL-2 78 µM | NCI-H460 61 µM | SK-OV-3 31.4 µM | SF-268 50 µM | MDA-MB-231 > 100 µM | DU-145 > 100 µM

CC(C)CNC(=O)CCc1cccc2c1oc1c(CCN)cccc12
inactive: SN12C 17.4 µM | MOLT-4 11.8 µM | KM12 11.9 µM | OVCAR-3 5.65 µM | HOP-92 5.7 µM | OVCAR-5 15.1 µM | A498 15 µM | HL-60 2.53 µM | SNB-19 4.35 µM | SR 8.43 µM | OVCAR-8 18.1 µM | K562 1.98 µM | SK-MEL-2 18.5 µM | NCI-H460 18.2 µM | SK-OV-3 17 µM | SF-268 15 µM | MDA-MB-231 15 µM | DU-145 17.9 µM

Cc1cc(S(=O)(=O)Nc2nc(N)nc(N(C)C)n2)c(SCC(=O)O)cc1Cl
inactive: SN12C > 10 µM | MOLT-4 > 10 µM | KM12 > 10 µM | OVCAR-3 > 10 µM | HOP-92 > 10 µM | OVCAR-5 > 10 µM | A498 > 10 µM | HL-60 > 10 µM | SNB-19 > 10 µM | SR > 10 µM | OVCAR-8 > 10 µM | K562 > 10 µM | SK-MEL-2 > 10 µM | NCI-H460 > 10 µM | SK-OV-3 > 10 µM | SF-268 > 10 µM | DU-145 > 10 µM

S=C(N/N=C/c1ccccc1)NC12CC3CC(CC(C3)C1)C2
inactive: SN12C 17.7 µM | MOLT-4 12.3 µM | KM12 36.2 µM | OVCAR-3 27.2 µM | HOP-92 6.18 µM | OVCAR-5 63.7 µM | A498 63.4 µM | HL-60 31.2 µM | SNB-19 > 100 µM | SR 18.2 µM | OVCAR-8 60 µM | K562 9.27 µM | SK-MEL-2 40 µM | NCI-H460 39.5 µM | SK-OV-3 > 100 µM | SF-268 31.9 µM
